In DBAASP:
Values after ≈ are worked out from the molar mass of the structure shown. Values joined by “and” are separate entries in the source; they are usually repeats but may differ in a detail not shown here. Equal values may be shown once. Blank lines part the entries; values can stand above or below the molecule they belong to.

Assays:
Assay in all cases: ≥ marks a high value that may be exact or a test limit, other limits are often not marked, values filed in µg/mL are converted to µM
Staphylococcus aureus = test system: Staphylococcus aureus
[1] = test system: Pseudomonas aeruginosa M76
Pseudomonas fluorescens = test system: Pseudomonas fluorescens
[2] = test system: Achromobacter xylosoxidans
Pseudomonas aeruginosa = test system: Pseudomonas aeruginosa
[3] = test system: Pseudomonas aeruginosa R70
[4] = test system: Salmonella enterica serovar Typhimurium
[5] = test system: Stenotrophomonas maltophilia
[6] = test system: Staphylococcus aureus ATCC 6538
Candida albicans = test system: Candida albicans
[7] = test system: Pseudomonas aeruginosa M1251
[8] = test system: Pseudomonas aeruginosa M917
Escherichia coli UB1005 = test system: Escherichia coli UB1005
[9] = test system: Pseudomonas aeruginosa M1426
[10] = test system: Pseudomonas aeruginosa ATCC 9027
Vibrio harveyi = test system: Vibrio harveyi
Aeromonas hydrophila = test system: Aeromonas hydrophila
Escherichia coli MG1655 = test system: Escherichia coli MG1655
[11] = test system: Candida krusei ATCC 200917
[12] = test system: Candida krusei ATCC 90878
Candida glabrata = test system: Candida glabrata
Cryptococcus neoformans = test system: Cryptococcus neoformans
[13] = test system: Candida albicans ATCC 200955
[14] = test system: Candida albicans ATCC 36232
[15] = test system: Micrococcus luteus ATCC 9341
Candida tropicalis = test system: Candida tropicalis
[16] = test system: Escherichia coli ATCC 2592
[17] = test system: Pseudomonas aeruginosa H187
[18] = test system: Klebsiella pneumoniae ATCC 700603
[19] = test system: Enterococcus faecalis C625
[20] = test system: Escherichia coli ATCC 25922
[21] = test system: Pseudomonas aeruginosa ATCC 27853
[22] = test system: Staphylococcus epidermidis C621
[23] = test system: Staphylococcus epidermidis ATCC 12228
Bacillus subtilis C971 = test system: Bacillus subtilis C971
[24] = test system: Corynebacterium xerosis C875
[25] = test system: Salmonella typhimurium C610
Escherichia coli DC2 = test system: Escherichia coli DC2
[26] = test system: Salmonella typhimurium C587
[27] = test system: Streptococcus pneumoniae ATCC 49619
[28] = test system: Staphylococcus aureus ATCC 25923
[29] = test system: Staphylococcus aureus SAP 0017
[30] = test system: Pseudomonas aeruginosa H188
[31] = test system: Staphylococcus aureus ATCC 29231
[32] = test system: Acinetobacter baumannii ATCC 7978
[33] = test system: Staphylococcus aureus MW2
[34] = test system: Enterococcus faecium E007
[35] = test system: Escherichia coli BW25113 ΔsbmA
Escherichia coli BW25113 = test system: Escherichia coli BW25113
[36] = test system: Acinetobacter baumannii ATCC 19606

Structure (SMILES): CC(C)C[C@H](NC(=O)[C@H](CC(C)C)NC(=O)[C@H](CCCCN)NC(=O)[C@H](CCCCN)NC(=O)[C@H](C)NC(=O)[C@H](CC(C)C)NC(=O)[C@H](CCCCN)NC(=O)[C@H](C)NC(=O)[C@H](CC(C)C)NC(=O)[C@H](CC(C)C)NC(=O)[C@H](CCCCN)NC(=O)[C@H](C)NC(=O)[C@@H](N)Cc1ccccc1)C(N)=O [FAKLLAKLAKKLL]
- MIC (Staphylococcus aureus): 2.75 µM (≈ 4 µg/mL)
- MIC [1]: 2.75 µM (≈ 4 µg/mL)
- MIC (Pseudomonas fluorescens): 5.49 µM (≈ 7.99 µg/mL)
- MIC [2]: ≥ 43.9 µM
- MIC (Pseudomonas aeruginosa): 5.49 µM (≈ 7.99 µg/mL)
- MIC [3]: 2.75 µM (≈ 4 µg/mL)
- MIC [4]: 2.75 µM (≈ 4 µg/mL)
- MIC [5]: 1.37 µM (≈ 2 µg/mL)
- MIC [6]: 3.43 µM (≈ 5 µg/mL)
- MIC (Candida albicans): 5.49 µM (≈ 7.99 µg/mL)
- MIC [7]: 2.75 µM (≈ 4 µg/mL)
- MIC [8]: 11 µM (≈ 16 µg/mL)
- MIC (Escherichia coli UB1005): 2.75 µM (≈ 4 µg/mL)
- MIC [9]: 5.49 µM (≈ 7.99 µg/mL)
- MIC [10]: 68.6 µM (≈ 99.9 µg/mL)

- MIC (Vibrio harveyi): ≥ 32 µM
- MIC (Aeromonas hydrophila): ≥ 128 µM
- MIC (Escherichia coli MG1655): 16 µM and ≥ 32 µM
Structure (SMILES): CC[C@H](C)[C@H](NC(=O)[C@H](C)NC(=O)[C@H](CCCN=C(N)N)NC(=O)[C@H](Cc1cnc[nH]1)NC(=O)[C@@H](NC(=O)[C@H](C)NC(=O)[C@H](CCCN=C(N)N)NC(=O)[C@@H](NC(=O)CNC(=O)[C@H](Cc1cnc[nH]1)NC(=O)[C@H](CO)NC(=O)[C@@H](NC(=O)[C@H](Cc1c[nH]c2ccccc12)NC(=O)CNC(=O)[C@@H](NC(=O)[C@@H](NC(=O)[C@H](Cc1cnc[nH]1)NC(=O)[C@H](C)NC(=O)[C@@H](NC(=O)[C@@H](N)Cc1ccccc1)[C@@H](C)CC)[C@@H](C)CC)[C@@H](C)CC)[C@@H](C)CC)C(C)C)[C@@H](C)CC)C(=O)N[C@@H](Cc1cnc[nH]1)C(N)=O [FIAHIIGWISHGVRAIHRAIH]

- MIC [11]: 1.6 µM (≈ 2.2 µg/mL)
- MIC [12]: 1.6 µM (≈ 2.2 µg/mL)
- MIC (Candida glabrata): 23.2 µM (≈ 32 µg/mL)
- MIC [6]: 2.27 µM (≈ 3.13 µg/mL)
- MIC (Candida albicans): 5.8 µM (≈ 7.99 µg/mL)
- MIC (Cryptococcus neoformans): 2.9 µM (≈ 4 µg/mL)
- MIC [13]: 3.2 µM (≈ 4.41 µg/mL)
- MIC [14]: 2.27 µM and 3.21 µM and 4.53 µM
- MIC [15]: 2.27 µM (≈ 3.13 µg/mL)
- MIC (Candida tropicalis): 2.9 µM (≈ 4 µg/mL)
- MIC [10]: 4.35 µM (≈ 6 µg/mL)
- MIC [16]: 7.98 µM (≈ 11 µg/mL)
Structure (SMILES): CC(C)[C@H](NC(=O)[C@H](CCCCN)NC(=O)[C@H](Cc1ccccc1)NC(=O)[C@@H](NC(=O)[C@@H](NC(=O)[C@H](CCCCN)NC(=O)[C@@H](N)CCCCN)C(C)C)C(C)C)C(=O)N[C@@H](CCCCN)C(=O)N[C@@H](Cc1ccccc1)C(=O)N[C@@H](CCCCN)C(=O)N[C@@H](CCCCN)C(N)=O [KKVVFKVKFKK]

- MIC [17]: 1.73 µM (≈ 5.07 µg/mL)
- MIC [18]: 4 µM (≈ 11.7 µg/mL)
- MIC [19]: 5.53 µM (≈ 16.2 µg/mL)
- MIC [20]: 2.83 µM (≈ 8.3 µg/mL)
- MIC [21]: 8 µM (≈ 23.5 µg/mL)
- MIC [22]: 1.11 µM (≈ 3.25 µg/mL)
- MIC [23]: 2.83 µM (≈ 8.3 µg/mL)
- MIC (Bacillus subtilis C971): 0.692 µM (≈ 2.03 µg/mL)
- MIC (Escherichia coli UB1005): 0.864 µM (≈ 2.54 µg/mL)
- MIC [24]: 0.692 µM (≈ 2.03 µg/mL)
- MIC [25]: 0.864 µM (≈ 2.54 µg/mL)
- MIC (Escherichia coli DC2): 0.864 µM (≈ 2.54 µg/mL)
- MIC [26]: 2.21 µM (≈ 6.49 µg/mL)
- MIC [27]: 2 µM (≈ 5.87 µg/mL)
- MIC [28]: 2.77 µM and 5.66 µM
- MIC [29]: 1.73 µM (≈ 5.07 µg/mL)
- MIC [30]: 2.21 µM (≈ 6.49 µg/mL)
Structure (SMILES): CC[C@H](C)[C@H](NC(=O)[C@H](C)NC(=O)[C@H](CCCCN)NC(=O)[C@H](CC(C)C)NC(=O)[C@H](C)NC(=O)[C@@H](NC(=O)[C@H](Cc1cnc[nH]1)NC(=O)[C@H](CC(C)C)NC(=O)[C@@H](NC(=O)[C@@H](NC(=O)[C@H](CCCCN)NC(=O)[C@H](C)NC(=O)[C@H](C)NC(=O)[C@H](CO)NC(=O)[C@H](CCCCN)NC(=O)[C@H](Cc1ccccc1)NC(=O)[C@@H](NC(=O)[C@H](CCCCN)NC(=O)[C@H](CC(C)C)NC(=O)[C@H](Cc1ccccc1)NC(=O)[C@H](CO)NC(=O)[C@H](CCCCN)NC(=O)[C@H](Cc1c[nH]c2ccccc12)NC(=O)[C@H](CCCCN)NC(C)=O)[C@@H](C)O)[C@@H](C)O)C(C)C)[C@@H](C)O)C(=O)N[C@@H](CO)C(=O)N[C@@H](CO)C(N)=O [KWKSFLKTFKSAAKTVLHTALKAISS]

Structure (SMILES): CC[C@H](C)[C@H](NC(=O)[C@H](CCCCN)NC(=O)[C@H](CCCCN)NC(=O)[C@@H](N)CC(C)C)C(=O)NCC(=O)N[C@@H](CCCCN)C(=O)N[C@@H](CCCCN)C(=O)N[C@H](C(=O)N[C@@H](Cc1c[nH]c2ccccc12)C(=O)N[C@@H](CCCN=C(N)N)C(=O)N[C@H](C(=O)NCC(=O)N[C@@H](Cc1c[nH]c2ccccc12)C(=O)N[C@@H](CC(N)=O)C(=O)N[C@H](C(=O)N[C@@H](CCCN=C(N)N)C(=O)O)[C@@H](C)O)C(C)C)[C@@H](C)CC [LKKIGKKIWRVGWNTR]
- MIC [31]: ≥ 64.5 µM
- MIC [32]: ≥ 64.5 µM
- MIC [33]: ≥ 64.5 µM
- MIC [34]: ≥ 64.5 µM

- MIC [18]: 4 µM (≈ 9.02 µg/mL)
- MIC [21]: 64 µM (≈ 144 µg/mL)
- MIC [35]: 3 µM (≈ 6.76 µg/mL)
- MIC (Escherichia coli BW25113): 2 µM (≈ 4.51 µg/mL)
- MIC [36]: 32 µM (≈ 72.2 µg/mL)
- MIC [28]: 32 µM (≈ 72.2 µg/mL)
Structure (SMILES): CC[C@H](C)[C@H](NC(=O)[C@H](CCCN=C(N)N)NC(=O)[C@@H](N)Cc1c[nH]c2ccccc12)C(=O)N[C@@H](CCCN=C(N)N)C(=O)N[C@@H](CCCN=C(N)N)C(=O)N[C@@H](CCCN=C(N)N)C(=O)N1CCC[C@H]1C(=O)N1CCC[C@H]1C(=O)N[C@@H](CCCN=C(N)N)C(=O)N[C@@H](CC(C)C)C(=O)N1CCC[C@H]1C(=O)N[C@@H](CCCN=C(N)N)C(=O)N1CCC[C@H]1C(=O)N[C@@H](CCCN=C(N)N)C(=O)N[C@@H](Cc1c[nH]c2ccccc12)C(=O)N[C@@H](CCCN=C(N)N)C(=O)O [WRIRRRPPRLPRPRWR]
